Data published in patent US4056673A, “Phosphonoacetic acid derivatives of nucleosides” (Hoffmann-La Roche Inc., priority 1976, dated 1977).
Like-named read-outs stand apart in the source and are kept apart here.

Legend:
[1] = test system: herpes simplex type 1 virus; experiment: animal or person; format: in vivo, mice (Swiss albino); settings: intraperitoneally, -24, 0, +24 hr, mice, day 21, disodium salt; for ED50: Human alphaherpesvirus 1, ip, 504 h, read-out: PD50 (Protective Dose50)
[2] = test system: herpes simplex type 2 virus; experiment: animal or person; format: in vivo, mice (Swiss albino); settings: Human alphaherpesvirus 2, ip, 504 h, intraperitoneally, -24, 0, +24 hr, mice, day 21, read-out: PD50 (Protective Dose50)
pseudorabies virus = experiment: animal or person; format: in vivo, mice (Swiss albino); settings: Suid alphaherpesvirus 1, in Mus musculus, ip, 504 h, read-out: PD50 (Protective Dose50)
leukemia L1210 ascites = experiment: Leukemia L1210 ascites in mice; format: in vivo; settings: 100 mg/kg intraperitoneally, BDF1 mice
Ehrlich carcinoma = settings: for C/T Index: Ehrlich carcinoma; for No. survivors/No. tested: mouse, in vivo, ip
KA-31 = settings: for activity against KA-31 solid tumor (in words): 14 ip treatments
herpes simlpex infection = settings: oral and topical; Shipkowitz et al. 1973; cited from earlier work
Marek's disease = settings: poultry; U.S. Pat. No. 3,836,650; cited from earlier work

Nc1ncnc2c1ncn2[C@H]1C[C@H](O)[C@@H](COP(=O)(O)CC(=O)O)O1 [2'-Deoxyadenosine-5'-monocarboxymethylphosphonate, monoacetonate]
ED50 [1]: 444 mg/kg

O=C(O)CP(=O)(O)OC[C@H]1O[C@@H](n2cc(I)c(=O)[nH]c2=O)C[C@@H]1O [5-Iodo-2'-deoxyuridine-5'-mono-carboxymethylphosphonate]
ED50 [1]: 110 mg/kg

Nc1ncnc2c1ncn2[C@@H]1O[C@H](COP(=O)(O)CC(=O)O)[C@@H](O)[C@H]1O [Adenosine-5'-mono-carboxymethylphosphonate]
ED50 [1]: 180 mg/kg | ED50 [2]: 575 mg/kg | ED50 (pseudorabies virus): 386 mg/kg

O=C(O)CP(=O)(O)OC[C@H]1O[C@@H](n2cc(F)c(=O)[nH]c2=O)C[C@@H]1O [Compound A, 5-Fluoro-2-deoxyuridine-5'-mono-carboxymethylphosphonate]
activity against leukemia L1210 ascites (in words) (leukemia L1210 ascites): inactive | activity against sarcoma 180 (in words) (sarcoma 180; 12.5 mg/kg): inactive | activity against sarcoma 180 (in words) (sarcoma 180; 25 mg/kg): active | activity against sarcoma 180 (in words) (sarcoma 180; 50 mg/kg): active | C/T Index (sarcoma 180; sarcoma 180, 12.5 mg/kg ip × 8): 1.7 | C/T Index (sarcoma 180; sarcoma 180, 25 mg/kg ip × 8): 2.2 | C/T Index (sarcoma 180; sarcoma 180, 50 mg/kg ip × 8): 5.9 | activity against Ehrlich carcinoma (in words) (Ehrlich carcinoma; 6.25 mg/kg): inactive | activity against Ehrlich carcinoma (in words) (Ehrlich carcinoma; 12.5 mg/kg): active | activity against Ehrlich carcinoma (in words) (Ehrlich carcinoma; 25 mg/kg): active | activity against Ehrlich carcinoma (in words) (Ehrlich carcinoma; 50 mg/kg): active | C/T Index (Ehrlich carcinoma; 6.25 mg/kg ip × 8): 1.5 | C/T Index (Ehrlich carcinoma; 12.5 mg/kg ip × 8): 2.4 | C/T Index (Ehrlich carcinoma; 25 mg/kg ip × 8): 3.4 | C/T Index (Ehrlich carcinoma; 50 mg/kg ip × 8): 12.1 | No. survivors/No. tested (Ehrlich carcinoma; 6.25 mg/kg): 16/16 | No. survivors/No. tested (Ehrlich carcinoma; 12.5 mg/kg): 24/24 | No. survivors/No. tested (Ehrlich carcinoma; 25 mg/kg): 23/24 | No. survivors/No. tested (Ehrlich carcinoma; 50 mg/kg): 21/24 | activity against KA-31 solid tumor (in words) (KA-31; 6.25 mg/kg): not at 6.25 mg/kg | activity against KA-31 solid tumor (in words) (KA-31; 12.5 mg/kg): activity was observed | activity against KA-31 solid tumor (in words) (KA-31; 25 mg/kg): activity was observed | C/T Index (KA-31; KA-31, 6.25 mg/kg ip × 14): 1.8 | C/T Index (KA-31; KA-31, 12.5 mg/kg ip × 14): 3.8 | C/T Index (KA-31; KA-31, 25 mg/kg ip × 14): 13.8

Nc1nc2c(ncn2[C@@H]2O[C@H](COP(=O)(O)CC(=O)O)[C@@H](O)[C@H]2O)c(=O)[nH]1 [Guanosine-5'-mono-carboxymethylphosphonate]
ED50 [1]: 144 mg/kg

O=C(O)CP(=O)(O)O [Phosphonoacetic acid]
antiviral activity against herpes simplex infection (in words) (herpes simlpex infection): antiviral agent exhibiting oral and topical activity against herpes simlpex infection | usefulness in combating Marek's disease (in words) (Marek's disease): useful in combating Marek's disease in poultry

Cc1cn([C@H]2C[C@H](O)[C@@H](COP(=O)(O)CC(=O)O)O2)c(=O)[nH]c1=O [Thymidine-5'-mono-carboxymethylphosphonate]
ED50 [1]: 185 mg/kg

O=C(O)CP(=O)(O)OC[C@H]1O[C@@H](n2ccc(=O)[nH]c2=O)[C@H](O)[C@@H]1O [Uridine-5'-mono-carboxymethylphosphonate]
ED50 [1]: 127 mg/kg

Adenosine-2'-(or 3'),5'-bis-carboxymethylphosphonate
PD50 (Protective Dose50) ([1]; 30240 min): 197 mg/kg
